Key:
Type in all cases: in vivo
[1] = system: giant foxtail (Setaria faberii); experiment: Test A preemergence, directed soil spray; conditions: 1000 g ai/ha, approx. 10 days
From the text: (§1) Seeds of plant species selected from barnyardgrass (Echinochloa crus-galli), kochia (Kochia scoparia), ragweed (common ragweed, Ambrosia elatior), Italian ryegrass (Lolium multiflorum), giant foxtail (Setaria faberii), and pigweed (Amaranthus retroflexus) were planted into a blend of loam soil and sand and treated preemergence with a directed soil spray using test chemicals formulated in a non-phytotoxic solvent mixture which included a surfactant. At the same time, plants selected from these weed species and also wheat (Triticum aestivum), corn (Zea mays), blackgrass (Alopecurus myosuroides), and galium (catchweed bedstraw, Galium aparine) were planted in pots containing the same blend of loam soil and sand and treated with postemergence applications of test chemicals formulated in the same manner. Plants ranged in height from 2 to 10 cm and were in the one- to two-leaf stage for the postemergence treatment. Treated plants and untreated controls were maintained in a greenhouse for approximately 10 days, after which time all treated plants were compared to untreated controls and visually evaluated for injury. Plant response ratings, summarized in Table A, are based on a 0 to 100 scale where 0 is no effect and 100 is complete control. A dash (-) response means no test result.

[2] = system: barnyardgrass (Echinochloa crus-galli); experiment: Test A preemergence, directed soil spray; conditions: 1000 g ai/ha, approx. 10 days
From the text: as §1

kochia (Kochia scoparia) [3] = experiment: Test A preemergence, directed soil spray; conditions: 1000 g ai/ha, approx. 10 days
From the text: as §1

[4] = system: pigweed (Amaranthus retroflexus); experiment: Test A preemergence, directed soil spray; conditions: 1000 g ai/ha, approx. 10 days
From the text: as §1

[5] = system: ragweed (common ragweed, Ambrosia elatior); experiment: Test A preemergence, directed soil spray; conditions: 1000 g ai/ha, approx. 10 days
From the text: as §1

[6] = system: Italian ryegrass (Lolium multiflorum); experiment: Test A preemergence, directed soil spray; conditions: 1000 g ai/ha, approx. 10 days
From the text: as §1

[7] = system: giant foxtail (Setaria faberii); experiment: Test A postemergence application; conditions: 1000 g ai/ha, approx. 10 days
From the text: as §1

[8] = system: barnyardgrass (Echinochloa crus-galli); experiment: Test A postemergence application; conditions: 1000 g ai/ha, approx. 10 days
From the text: as §1

[9] = system: wheat (Triticum aestivum); experiment: Test A postemergence application; conditions: 1000 g ai/ha, approx. 10 days
From the text: as §1

kochia (Kochia scoparia) [10] = experiment: Test A postemergence application; conditions: 1000 g ai/ha, approx. 10 days
From the text: as §1

[11] = system: pigweed (Amaranthus retroflexus); experiment: Test A postemergence application; conditions: 1000 g ai/ha, approx. 10 days
From the text: as §1

[12] = system: galium (catchweed bedstraw, Galium aparine); experiment: Test A postemergence application; conditions: 1000 g ai/ha, approx. 10 days
From the text: as §1

[13] = system: ragweed (common ragweed, Ambrosia elatior); experiment: Test A postemergence application; conditions: 1000 g ai/ha, approx. 10 days
From the text: as §1

[14] = system: Italian ryegrass (Lolium multiflorum); experiment: Test A postemergence application; conditions: 1000 g ai/ha, approx. 10 days
From the text: as §1

corn (Zea mays) = experiment: Test A postemergence application; conditions: 1000 g ai/ha, approx. 10 days
From the text: as §1

[15] = system: blackgrass (Alopecurus myosuroides); experiment: Test A postemergence application; conditions: 1000 g ai/ha, approx. 10 days
From the text: as §1

rice (Oryza sativa) = experiment: Test B flooded paddy test; design: key: 0 = no effect, 100 = complete control; conditions: Flood, 250 g ai/ha applied to paddy water at 2-leaf stage; visually evaluated after 13 to 15 days; scale 0 (no effect) to 100 (complete control)
Protocol: (§2) Plant species in the flooded paddy test selected from rice (Oryza sativa), sedge, umbrella (small-flower umbrella sedge, Cyperus difformis), ducksalad (Heteranthera limosa), and barnyardgrass (Echinochloa crus-galli) were grown to the 2-leaf stage for testing. At time of treatment, test pots were flooded to 3 cm above the soil surface, treated by application of test compounds directly to the paddy water, and then maintained at that water depth for the duration of the test. Treated plants and controls were maintained in a greenhouse for 13 to 15 days, after which time all species were compared to controls and visually evaluated. Plant response ratings, summarized in Table B, are based on a scale of 0 to 100 where 0 is no effect and 100 is complete control. A dash (-) response means no test result.

[16] = system: ducksalad (Heteranthera limosa); experiment: Test B flooded paddy test; design: key: 0 = no effect, 100 = complete control; conditions: Flood, 250 g ai/ha applied to paddy water at 2-leaf stage; visually evaluated after 13 to 15 days; scale 0 (no effect) to 100 (complete control)
Protocol: as §2

[17] = system: barnyardgrass (Echinochloa crus-galli); experiment: Test B flooded paddy test; design: key: 0 = no effect, 100 = complete control; conditions: Flood, 250 g ai/ha applied to paddy water at 2-leaf stage; visually evaluated after 13 to 15 days; scale 0 (no effect) to 100 (complete control)
Protocol: as §2

[18] = system: sedge, umbrella (small-flower umbrella sedge, Cyperus difformis); experiment: Test B flooded paddy test; design: key: 0 = no effect, 100 = complete control; conditions: Flood, 250 g ai/ha applied to paddy water at 2-leaf stage; visually evaluated after 13 to 15 days; scale 0 (no effect) to 100 (complete control)
Protocol: as §2

Q: With `O=c1cccc(Oc2ncc(Cl)cn2)n1-c1cccc(OC(F)(F)F)c1` [Compound 3, 6-[(5-chloro-2-pyrimidinyl)oxy]-1-[3-(trifluoromethoxy)phenyl]-2(1H)-pyridinone] as the compound, how does the “Plant response rating (0 to 100 scale, 0 no effect, 100 complete control), Foxtail, Giant” value [1] read?
A: 100

Q: And the “Plant response rating (0 to 100 scale, 0 no effect, 100 complete control), Barnyardgrass” value [2]?
A: 80

Q: And the “Plant response rating (0 to 100 scale, 0 no effect, 100 complete control), Kochia” value (kochia (Kochia scoparia) [3])?
A: 40

Q: And the “Plant response rating (0 to 100 scale, 0 no effect, 100 complete control), Pigweed” value [4]?
A: 70

Q: And the “Plant response rating (0 to 100 scale, 0 no effect, 100 complete control), Ragweed” value [5]?
A: 20

Q: And the “Plant response rating (0 to 100 scale, 0 no effect, 100 complete control), Ryegrass, Italian” value [6]?
A: 50

Q: What about the “Plant response rating (0 to 100 scale, 0 no effect, 100 complete control), Foxtail, Giant” value [7] of the same compound?
A: 100

Q: And the “Plant response rating (0 to 100 scale, 0 no effect, 100 complete control), Barnyardgrass” value [8]?
A: 70

Q: What about the “Plant response rating (0 to 100 scale, 0 no effect, 100 complete control), Wheat” value [9] of the same compound?
A: 30

Q: And the “Plant response rating (0 to 100 scale, 0 no effect, 100 complete control), Kochia” value (kochia (Kochia scoparia) [10])?
A: 90

Q: What about the “Plant response rating (0 to 100 scale, 0 no effect, 100 complete control), Pigweed” value [11] of the same compound?
A: 90

Q: And the “Plant response rating (0 to 100 scale, 0 no effect, 100 complete control), Galium” value [12]?
A: 100

Q: What about the “Plant response rating (0 to 100 scale, 0 no effect, 100 complete control), Ragweed” value [13] of the same compound?
A: 30

Q: What about the “Plant response rating (0 to 100 scale, 0 no effect, 100 complete control), Ryegrass, Italian” value [14] of the same compound?
A: 30

Q: And the “Plant response rating (0 to 100 scale, 0 no effect, 100 complete control), Corn” value (corn (Zea mays))?
A: 20

Q: What about the “Plant response rating (0 to 100 scale, 0 no effect, 100 complete control), Blackgrass” value [15] of the same compound?
A: 40

Q: And the “Plant response rating, Rice” value (rice (Oryza sativa))?
A: 0

Q: What about the “Plant response rating, Ducksalad” value [16] of the same compound?
A: 0

Q: And the “Plant response rating, Barnyardgrass” value [17]?
A: 0

Q: And the “Plant response rating, Sedge, Umbrella” value [18]?
A: 0
